Test results reported in patent US20260083704A1, “LXR MODULATORS WITH BICYCLIC CORE MOIETY FOR TREATING DYSLIPIDEMIAS” (OrsoBio, Inc., priority 2022, published 2026).
Where two headings read alike, the source gives them in different places.

Experiments:
[1] = test system: CDHFD/sodium nitrate-treated Wistar Han rats; assay: CDHFD/sodium nitrate rat model of NASH with advanced fibrosis; type: in vivo; details: 5 mg/kg once daily oral
Source text: Data are shown as mean±SD. N=7-8 animals per group. *p≤0.05, **p≤0.01, ***p≤0.001, ****p≤0.0001 Mann-Whitney test.
The CDHFD model of NASH is characterized by reduced phosphatidylcholine synthesis in the liver and impaired TG secretion in VLDL particles, which results in hepatic lipid accumulation, inflammation, oxidative stress, and severe fibrosis. Liver injury in CDHFD-fed rats can be exacerbated by further inducing hypoxia using sodium nitrate (Takayama, Egashira et al. 2009). Wistar Han rats were treated with CDHFD/sodium nitrate for a total of 12 weeks and dosed with Compound pre-6/3 (5 mg/kg once daily by oral gavage) from Weeks 6 to 12. […] Moreover, compared with vehicle treatment, Compound pre-6/3 decreased hepatic hydroxyproline and collagen content by 64% (p≤0.001) and 50% (p≤0.001), respectively (FIG. 8B-C).

[2] = test system: SREBP1c reporter in HepG2; assay: HepG2 SREBP1c reporter assay; type: cell-based; details: Homo sapiens; HepG2, mean ± SD
Description: (§1) The potencies of Compound 21/3 and its analog, Compound pre-6/3, against LXRα and LXRβ were evaluated in biochemical binding assays, cellular mammalian two-hybrid (M2H) interaction assays evaluating nuclear receptor co-repressor (NCOR) recruitment, and cellular reporter assays evaluating transcriptional activity (Table 5).

LXRβ = target: T1, LXRβ (Homo sapiens, UniProt P55055); assay: Biochemical binding assay LXRβ; details: mean ± SD
T1 sequence (P55055 1-460): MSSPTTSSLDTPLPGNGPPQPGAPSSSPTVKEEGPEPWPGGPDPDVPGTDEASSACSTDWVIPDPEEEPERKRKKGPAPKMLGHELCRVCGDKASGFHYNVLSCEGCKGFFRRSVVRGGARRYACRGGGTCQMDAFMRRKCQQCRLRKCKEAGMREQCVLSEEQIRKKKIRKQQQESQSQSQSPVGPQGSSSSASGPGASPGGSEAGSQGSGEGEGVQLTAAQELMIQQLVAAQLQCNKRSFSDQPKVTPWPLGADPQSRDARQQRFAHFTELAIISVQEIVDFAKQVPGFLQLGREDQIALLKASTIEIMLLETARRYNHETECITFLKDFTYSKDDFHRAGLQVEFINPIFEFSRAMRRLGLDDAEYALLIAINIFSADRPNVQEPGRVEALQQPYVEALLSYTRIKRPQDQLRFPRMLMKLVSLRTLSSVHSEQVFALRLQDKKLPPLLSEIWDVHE
Description: as §1

[3] = Phase 1 study, MAD cohorts: plasma pharmacokinetics; type: in vivo, human; details: healthy subjects; for AUC / Cmax / Tmax / half-life: both sexes, human, plasma, oral
Description: (§2) A double-blind, placebo-controlled, single- and multiple-ascending dose FIH Phase 1 study to evaluate the safety, tolerability, PK, and PD of Compound 21/3 in healthy adult subjects was performed. A total of up to 150 subjects were enrolled, including 100 subjects in Parts A and B, and up to 50 subjects in adaptive cohorts in Part C. Within each cohort, 10 subjects were randomized, including 8 subjects randomized to Compound 21/3 and 2 subjects to PTM (placebo-to-match). In single-dose cohorts in Parts A and in any Part C cohort evaluating a higher total daily dose than previously evaluated, safety and tolerability data collected through Day 2 from two sentinel subjects, one randomized to Compound 21/3 and one to PTM, were evaluated prior to dosing of the remaining subjects in each cohort.
Intensive PK sampling over 72 h postdose on Day 1 (SAD and MAD) and Day 14 (MAD) was performed. Compound 21/3 plasma concentrations were determined using validated liquid chromatography-tandem mass spectrometry assay. PK parameters were estimated via noncompartmental methods using Pheonix® WinNonlin® 6.2.1 and 8.3.4 (Certara, LP, Princeton, NJ).
Part B evaluated the safety, tolerability, PK, and PD of multiple-ascending doses of oral Compound 21/3 or placebo under fed conditions. Part B will proceed in up to 5 dose-escalation cohorts and will be governed by a review of safety, tolerability, and any available and relevant PK and/or PD data, and study-specific stopping criteria.

[4] = test system: human primary Upcyte hepatocytes; assay: Lipid accumulation in human primary Upcyte hepatocytes (Bodipy staining); type: cell-based; details: Hepatocyte, 120 h, glucose 25 mM and palmitate, 5 days
Description: Inhibition of LXR activity in hepatocytes is hypothesized to reduce intracellular TG accumulation via inhibition of DNL. The effects of Compound 21/3 on lipid accumulation in human primary Upcyte® hepatocytes were evaluated. Briefly, human primary Upcyte hepatocytes were cultivated in media containing high concentrations of glucose (25 mM) and palmitate ([…]) for 5 days in the presence or absence of Compound 21/3, and intracellular lipids were measured by Bodipy™ staining. […] Data are shown as mean±SD. n=2 wells per treatment; N=8 experiments.

healthy subjects = assay: Phase 1 study, SAD cohorts: safety and tolerability; type: in vivo, human; details: range over dose groups
Description: as §2
An approximately even distribution of healthy male and non-pregnant, non-lactating female subjects 18 to 55 years of age, inclusive, were to be enrolled in the study. There were no significant medical conditions by history, physical examination, or laboratory evaluation. Subjects were not allowed to participate in more than one cohort of the study. Within each MAD cohort, attempts were made to enrich for >3 subjects with elevated TG and/or LDL-C. Following the completion of Screening and admission assessments, eligible subjects were to be enrolled on Day −1. […]

[5] = Plasma and liver exposures in mice dosed 1 mg/kg by oral gavage; type: in vivo; details: 1 mg/kg oral gavage
Description: Data are shown as mean±SD. N=3-8 wells per treatment.
The efficacy of Compound 21/3 and Compound pre-6/3 were evaluated in diet-induced obese (DIO) mouse and rat models.

In the case of `N#Cc1cccc(C#N)c1-c1c(-c2cccc(-c3ccc(C(=O)O)cc3Cl)c2)n(S(=O)(=O)c2ccc(C(F)F)cc2)c2ccc(F)cc12` [pre-6/3], the “fibrosis (picrosirus red staining)” value ([1]; Weeks 6 to 12) is reported as “significantly decreased”, the “hepatic expression of DNL genes (Srebp1c, Scd1, Fasn) and fibrogenesis genes (Timp1, Col1a1, Acta2)” value ([1]; Weeks 6 to 12) is reported as “decreased” and the “liver TG content” value ([1]; Weeks 6 to 12) is reported as “decreased”. The “decrease of hepatic collagen content compared with vehicle” value ([1]; Weeks 6 to 12, p≤0.001) was 50%, the “decrease of hepatic hydroxyproline content compared with vehicle” value ([1]; Weeks 6 to 12, p≤0.001) was 64% and the IC50 [2] was 0.2 ± 0.1 nM. It also gave an EC50 (LXRβ) of 17 ± 7 nM.
In the case of `N#Cc1cccc(C#N)c1-c1c(-c2cccc(-c3ccc(C(=O)NCC(=O)O)cc3Cl)c2)n(S(=O)(=O)c2ccc(C(F)F)cc2)c2ccc(F)cc12` [Compound 21/3], the AUC ([3]; 2 mg, MAD Day 14, 2 mg, fed, mean) is reported as 2.7 ng·h/mL, the Cmax ([3]; 2 mg, MAD Day 14, 2 mg, fed, mean, read-out: Cmax) is reported as 0.95 ng/mL and the Tmax ([3]; 2 mg, MAD Day 14, 2 mg, fed, median) is reported as 4 h. For the same compound, the half-life ([3]; 2 mg, MAD Day 14, 2 mg, fed, median, read-out: t1/2 (converted)) was 1.43 h, the AUC ([3]; 6 mg, MAD Day 14, 6 mg (fasted), mean) was 19 ng·h/mL and the Cmax ([3]; 6 mg, MAD Day 14, 6 mg (fasted), mean, read-out: Cmax) was 6.37 ng/mL. The Tmax ([3]; 6 mg, MAD Day 14, 6 mg (fasted), median) was 2 h, the half-life ([3]; 6 mg, MAD Day 14, 6 mg (fasted), median, read-out: t1/2 (converted)) was 1.46 h and the AUC ([3]; 6 mg, MAD Day 14, 6 mg, fed, mean) was 6.05 ng·h/mL. The Cmax ([3]; 6 mg, MAD Day 14, 6 mg, fed, mean, read-out: Cmax) was 2.16 ng/mL, the Tmax ([3]; 6 mg, MAD Day 14, 6 mg, fed, median) was 3.5 h and the half-life ([3]; 6 mg, MAD Day 14, 6 mg, fed, median, read-out: t1/2 (converted)) was 1.51 h. It also gave an AUC ([3]; 12 mg, MAD Day 14, 12 mg, fed, mean) of 14.6 ng·h/mL, a Cmax ([3]; 12 mg, MAD Day 14, 12 mg, fed, mean, read-out: Cmax) of 4.85 ng/mL and a Tmax ([3]; 12 mg, MAD Day 14, 12 mg, fed, median) of 3.5 h. The half-life ([3]; 12 mg, MAD Day 14, 12 mg, fed, median, read-out: t1/2 (converted)) was 1.74 h, the half-life ([3]; MAD, read-out: steady-state t1/2) was 1.4 to 2.6 h and the Tmax ([3]; Phase 1 summary (SAD and MAD)) was 2 to 4 h. For the same compound, the Cmax ([3]; Phase 1 summary (SAD and MAD), read-out: maximal plasma concentrations (Cmax)) was < 7 ng/mL, the “steady-state t1/2” value ([3]; MAD) was 1.5 to 2.5 h and the “AUC and Cmax lower on Day 14 vs Day 1” value ([3]; MAD, fed dosing) was 25-50%. For the same compound, the “dose proportionality of AUC and Cmax” value ([3]; MAD, fed dosing) was “increased less than dose proportionally”, the EC50 [4] was 289 ± 34 nM and the IC50 [2] was 7 ± 5 nM. The “proportion of subjects with adverse events (AEs)” value (healthy subjects) was 13-50%, the “liver exposures compared with Compound pre-6/3” value [5] was “higher and sustained liver exposures” and the “plasma exposures compared with Compound pre-6/3” value [5] was “lower plasma exposures”. It also gave an EC50 (LXRβ) of 15 ± 3 nM.
